Test [1] concerns Plasmodium falciparum. Nature of the test: Antimalarial activity against Plasmodium falciparum W2 clone as relative IC50 to artemisinin. In kind it is functional.
In test [2] the test system is Plasmodium falciparum. Nature of the test: Antimalarial activity against Plasmodium falciparum D6 as IC50 relative to artemisinin. The test is classed as functional.
Test [3] concerns Plasmodium falciparum. Kind of test: Inhibitory activity against Plasmodium falciparum W2. The test is classed as functional, organism-based.
Test [4] relates to Plasmodium falciparum. Kind of test: Inhibitory activity against Plasmodium falciparum D6. The test is classed as functional, organism-based.

In brackets after ≈: the same amount, converted by molar mass.

Turning to `CC(=O)/C=C/N1C(=O)[C@H](C)[C@@H]2CC[C@@H](C)[C@@H]3CC[C@]4(C)OO[C@]32[C@H]1O4`, the IC50 ratio was 1.25 in test [1] and 2.54 in test [2].

With `COC(=O)/C=C/N1C(=O)[C@H](C)[C@@H]2CC[C@@H](C)[C@@H]3CC[C@]4(C)OO[C@]32[C@H]1O4`, the results for the IC50 ratio in test [1] and in test [2] were 1.2 and 2, respectively.

With `C[C@@H]1CC[C@H]2[C@@H](C)C(=O)N(/C=C/C(=O)N(C)C)[C@@H]3O[C@]4(C)CC[C@@H]1[C@@]23OO4`, the IC50 ratio came to 0.35 in test [1] and 0.39 in test [2].

With `C[C@@H]1CC[C@H]2[C@@H](C)C(=O)O[C@@H]3O[C@@]4(C)CC[C@@H]1[C@]32OO4` [ARTEMISININ], the IC50 amounted to 1.15 ng/mL (≈ 4.07 nM) in test [3] and 4.19 ng/mL (≈ 14.8 nM) in test [4].

By IC50 is commonly meant the point on the concentration scale where inhibition reaches its midpoint. Read a high IC50 as weaker potency.

These data come from ChEMBL document CHEMBL1132500, “Structure and antimalarial activity of adducts of 11-azaartemisinin with conjugated terminal acetylenes” (Bioorg Med Chem Lett, 1999).
